From ChEMBL document CHEMBL1154057, “Synthesis and antibacterial activity of novel 15-membered macrolide derivatives: 4''-carbamate, 11,12-cyclic carbonate-4''-carbamate and 11,4''-di-O-arylcarbamoyl analogs of azithromycin” (2009)
Converted amounts (≈) assume the structure as drawn.

Experiments:
[1] = system: Streptococcus pneumoniae; test: Antibacterial activity against erythromycin-susceptible Streptococcus pneumoniae ATCC 49619
[2] = system: Streptococcus pneumoniae; test: Antibacterial activity against erythromycin-resistant Streptococcus pneumoniae A22072 encoded by mef gene
[3] = system: Streptococcus pneumoniae; test: Antibacterial activity against erythromycin-resistant Streptococcus pneumoniae AB11 encoded by erm and mef gene
[4] = system: Streptococcus pneumoniae; test: Antibacterial activity against erythromycin-resistant Streptococcus pneumoniae B1 encoded by erm gene

SMILES | MIC [1] | MIC [2] | MIC [3] | MIC [4]
CC[C@H]1OC(=O)[C@H](C)[C@@H](O[C@H]2C[C@@](C)(OC)[C@@H](OC(=O)NCCc3ccc(O)cc3)[C@H](C)O2)[C@H](C)[C@@H](O[C@@H]2O[C@H](C)C[C@H](N(C)C)[C@H]2O)[C@@](C)(O)C[C@@H](C)CN(C)[C@H](C)[C@H]2OC(=O)O[C@@]21C | < 0.03 µg/mL | 1 µg/mL (≈ 1.07 µM) | 4 µg/mL (≈ 4.26 µM) | 8 µg/mL (≈ 8.53 µM)
CC[C@H]1OC(=O)[C@H](C)[C@@H](O[C@H]2C[C@@](C)(OC)[C@@H](OC(=O)NCc3ccccc3)[C@H](C)O2)[C@H](C)[C@@H](O[C@@H]2O[C@H](C)C[C@H](N(C)C)[C@H]2O)[C@@](C)(O)C[C@@H](C)CN(C)[C@H](C)[C@H]2OC(=O)O[C@@]21C | < 0.03 µg/mL | 0.12 µg/mL (≈ 0.132 µM) | 8 µg/mL (≈ 8.81 µM) | 8 µg/mL (≈ 8.81 µM)
CC[C@H]1OC(=O)[C@H](C)[C@@H](O[C@H]2C[C@@](C)(OC)[C@@H](OC(=O)NC(C)C)[C@H](C)O2)[C@H](C)[C@@H](O[C@@H]2O[C@H](C)C[C@H](N(C)C)[C@H]2O)[C@@](C)(O)C[C@@H](C)CN(C)[C@H](C)[C@@H](O)[C@]1(C)O | 0.12 µg/mL (≈ 0.144 µM) | 8 µg/mL (≈ 9.59 µM) | 256 µg/mL (≈ 307 µM) | 128 µg/mL (≈ 153 µM)
CC[C@H]1OC(=O)[C@H](C)[C@@H](O[C@H]2C[C@@](C)(OC)[C@@H](OC(=O)NCc3ccc(OC)cc3)[C@H](C)O2)[C@H](C)[C@@H](O[C@@H]2O[C@H](C)C[C@H](N(C)C)[C@H]2O)[C@@](C)(O)C[C@@H](C)CN(C)[C@H](C)[C@@H](O)[C@]1(C)O | 0.12 µg/mL (≈ 0.132 µM) | 4 µg/mL (≈ 4.39 µM) | 32 µg/mL (≈ 35.1 µM) | 64 µg/mL (≈ 70.2 µM)
CC[C@H]1OC(=O)[C@H](C)[C@@H](O[C@H]2C[C@@](C)(OC)[C@@H](OC(=O)NC3CCCCC3)[C@H](C)O2)[C@H](C)[C@@H](O[C@@H]2O[C@H](C)C[C@H](N(C)C)[C@H]2O)[C@@](C)(O)C[C@@H](C)CN(C)[C@H](C)[C@@H](O)[C@]1(C)O | 0.12 µg/mL (≈ 0.137 µM) | 8 µg/mL (≈ 9.15 µM) | 128 µg/mL (≈ 146 µM) | 32 µg/mL (≈ 36.6 µM)
CCCCNC(=O)O[C@@H]1[C@@H](C)N(C)C[C@H](C)C[C@](C)(O)[C@H](O[C@@H]2O[C@H](C)C[C@H](N(C)C)[C@H]2O)[C@@H](C)[C@H](O[C@H]2C[C@@](C)(OC)[C@@H](OC(=O)NCc3ccc(OC)cc3)[C@H](C)O2)[C@@H](C)C(=O)O[C@H](CC)[C@@]1(C)O | 0.06 µg/mL (≈ 0.0593 µM) | 1 µg/mL (≈ 0.989 µM) | 128 µg/mL (≈ 127 µM) | 0.5 µg/mL (≈ 0.494 µM)
CCCCNC(=O)O[C@@H]1[C@@H](C)N(C)C[C@H](C)C[C@](C)(O)[C@H](O[C@@H]2O[C@H](C)C[C@H](N(C)C)[C@H]2O)[C@@H](C)[C@H](O[C@H]2C[C@@](C)(OC)[C@@H](OC(=O)NCCc3ccc(O)cc3)[C@H](C)O2)[C@@H](C)C(=O)O[C@H](CC)[C@@]1(C)O | < 0.03 µg/mL | 1 µg/mL (≈ 0.989 µM) | 128 µg/mL (≈ 127 µM) | 0.25 µg/mL (≈ 0.247 µM)
CC[C@H]1OC(=O)[C@H](C)[C@@H](O[C@H]2C[C@@](C)(OC)[C@@H](OC(=O)NCCc3ccccc3Cl)[C@H](C)O2)[C@H](C)[C@@H](O[C@@H]2O[C@H](C)C[C@H](N(C)C)[C@H]2O)[C@@](C)(O)C[C@@H](C)CN(C)[C@H](C)[C@@H](OC(=O)NCc2ccc(F)cc2)[C@]1(C)O | 0.06 µg/mL (≈ 0.0555 µM) | 0.25 µg/mL (≈ 0.231 µM) | 4 µg/mL (≈ 3.7 µM) | 0.25 µg/mL (≈ 0.231 µM)
CC[C@H]1OC(=O)[C@H](C)[C@@H](O[C@H]2C[C@@](C)(OC)[C@@H](OC(=O)NCCc3ccc4c(c3)OCO4)[C@H](C)O2)[C@H](C)[C@@H](O[C@@H]2O[C@H](C)C[C@H](N(C)C)[C@H]2O)[C@@](C)(O)C[C@@H](C)CN(C)[C@H](C)[C@@H](O)[C@]1(C)O | < 0.03 µg/mL | 0.5 µg/mL (≈ 0.532 µM) | 8 µg/mL (≈ 8.51 µM) | 8 µg/mL (≈ 8.51 µM)
CCCCCNC(=O)O[C@H]1[C@H](C)O[C@@H](O[C@H]2[C@H](C)[C@@H](O[C@@H]3O[C@H](C)C[C@H](N(C)C)[C@H]3O)[C@@](C)(O)C[C@@H](C)CN(C)[C@H](C)[C@@H](O)[C@](C)(O)[C@@H](CC)OC(=O)[C@@H]2C)C[C@@]1(C)OC | < 0.03 µg/mL | 0.5 µg/mL (≈ 0.58 µM) | 32 µg/mL (≈ 37.1 µM) | 8 µg/mL (≈ 9.28 µM)
CC[C@H]1OC(=O)[C@H](C)[C@@H](O[C@H]2C[C@@](C)(OC)[C@@H](OC(=O)NCc3ccccc3)[C@H](C)O2)[C@H](C)[C@@H](O[C@@H]2O[C@H](C)C[C@H](N(C)C)[C@H]2O)[C@@](C)(O)C[C@@H](C)CN(C)[C@H](C)[C@@H](O)[C@]1(C)O | < 0.03 µg/mL | 0.06 µg/mL (≈ 0.068 µM) | 64 µg/mL (≈ 72.6 µM) | 16 µg/mL (≈ 18.1 µM)
C=CCNC(=O)O[C@H]1[C@H](C)O[C@@H](O[C@H]2[C@H](C)[C@@H](O[C@@H]3O[C@H](C)C[C@H](N(C)C)[C@H]3O)[C@@](C)(O)C[C@@H](C)CN(C)[C@H](C)[C@H]3OC(=O)O[C@]3(C)[C@@H](CC)OC(=O)[C@@H]2C)C[C@@]1(C)OC | 0.12 µg/mL (≈ 0.14 µM) | 1 µg/mL (≈ 1.17 µM) | 128 µg/mL (≈ 149 µM) | 64 µg/mL (≈ 74.6 µM)
CC[C@H]1OC(=O)[C@H](C)[C@@H](O[C@H]2C[C@@](C)(OC)[C@@H](O)[C@H](C)O2)[C@H](C)[C@@H](O[C@@H]2O[C@H](C)C[C@H](N(C)C)[C@H]2O)[C@](C)(O)C[C@@H](C)CN(C)[C@H](C)[C@@H](O)[C@]1(C)O [AZITHROMYCIN] | < 0.03 µg/mL | 4 µg/mL (≈ 5.34 µM) | 256 µg/mL (≈ 342 µM) | 128 µg/mL (≈ 171 µM)
CC[C@H]1OC(=O)[C@H](C)[C@@H](O[C@H]2C[C@@](C)(OC)[C@@H](OC(=O)NCCc3ccc(O)cc3)[C@H](C)O2)[C@H](C)[C@@H](O[C@@H]2O[C@H](C)C[C@H](N(C)C)[C@H]2O)[C@@](C)(O)C[C@@H](C)CN(C)[C@H](C)[C@@H](O)[C@]1(C)O | < 0.03 µg/mL | 0.5 µg/mL (≈ 0.548 µM) | 2 µg/mL (≈ 2.19 µM) | 4 µg/mL (≈ 4.39 µM)
CCCCCNC(=O)O[C@@H]1[C@@H](C)N(C)C[C@H](C)C[C@](C)(O)[C@H](O[C@@H]2O[C@H](C)C[C@H](N(C)C)[C@H]2O)[C@@H](C)[C@H](O[C@H]2C[C@@](C)(OC)[C@@H](OC(=O)NCc3ccc(OC)cc3)[C@H](C)O2)[C@@H](C)C(=O)O[C@H](CC)[C@@]1(C)O | 0.06 µg/mL (≈ 0.0585 µM) | 1 µg/mL (≈ 0.975 µM) | 32 µg/mL (≈ 31.2 µM) | 0.5 µg/mL (≈ 0.488 µM)
CCCCCNC(=O)O[C@@H]1[C@@H](C)N(C)C[C@H](C)C[C@](C)(O)[C@H](O[C@@H]2O[C@H](C)C[C@H](N(C)C)[C@H]2O)[C@@H](C)[C@H](O[C@H]2C[C@@](C)(OC)[C@@H](OC(=O)NCCc3ccccc3Cl)[C@H](C)O2)[C@@H](C)C(=O)O[C@H](CC)[C@@]1(C)O | < 0.03 µg/mL | 0.5 µg/mL (≈ 0.479 µM) | 16 µg/mL (≈ 15.3 µM) | 0.5 µg/mL (≈ 0.479 µM)
CC[C@H]1OC(=O)[C@H](C)[C@@H](O[C@H]2C[C@@](C)(OC)[C@@H](OC(=O)NC(C)C)[C@H](C)O2)[C@H](C)[C@@H](O[C@@H]2O[C@H](C)C[C@H](N(C)C)[C@H]2O)[C@@](C)(O)C[C@@H](C)CN(C)[C@H](C)[C@H]2OC(=O)O[C@@]21C | 0.12 µg/mL (≈ 0.14 µM) | 8 µg/mL (≈ 9.3 µM) | 128 µg/mL (≈ 149 µM) | 16 µg/mL (≈ 18.6 µM)
CC[C@H]1OC(=O)[C@H](C)[C@@H](O[C@H]2C[C@@](C)(OC)[C@@H](OC(=O)NCc3ccc(F)cc3)[C@H](C)O2)[C@H](C)[C@@H](O[C@@H]2O[C@H](C)C[C@H](N(C)C)[C@H]2O)[C@@](C)(O)C[C@@H](C)CN(C)[C@H](C)[C@@H](OC(=O)NCCc2ccccc2)[C@]1(C)O | < 0.03 µg/mL | 0.06 µg/mL (≈ 0.0573 µM) | 32 µg/mL (≈ 30.6 µM) | 0.25 µg/mL (≈ 0.239 µM)
